Measurements from patent publication US7649093B2, “Naphthalene compounds as selective estrogen receptor modulators” (Glaxo Smith Kline LLC, priority 2004, dated 2010).

Row | melting point [°C] | SMILES
1 | 76 to 79 | COCc1cc2ccccc2c(Oc2ccc(/C=C/C(=O)O)cc2)c1-c1ccccc1
2 | 107 to 109 | CCCCc1cc2ccccc2c(Oc2ccc(/C=C/C(=O)O)cc2)c1-c1ccc(O)cc1
3 | 162 to 164 | Cc1cc2cc(O)ccc2c(Oc2ccc(/C=C/C(=O)O)cc2)c1-c1ccc(O)cc1 [Example 10, (2E)-3-(4-{[6-Hydroxy-2-(4-hydroxyphenyl)-3-methyl-1-naphthalenyl]oxy}phenyl)-2-propenoic acid]
4 | 195 to 196 | CCc1cc2cc(O)ccc2c(Oc2ccc(/C=C/C(=O)N3CCN(C)CC3)cc2)c1-c1ccccc1 [Example 12, 7-Ethyl-5-({4-[(1E)-3-(4-methyl-1-piperazinyl)-3-oxo-1-propen-1-yl]phenyl}oxy)-6-phenyl-2-naphthalenol]
5 | 224 to 225 | Cc1cc2ccccc2c(Oc2ccc(/C=C/C(=O)O)cc2)c1-c1ccccc1 [Example 15, (2E)-3-{4-[(3-Methyl-2-phenyl-1-naphthalenyl)oxy]phenyl}-2-propenoic acid]
6 | 126 to 128 | CC(C)Cc1cc2cc(O)ccc2c(Oc2ccc(/C=C/C(=O)O)cc2)c1-c1ccccc1 [Example 17, (2E)-3-(4-{[6-Hydroxy-3-(2-methylpropyl)-2-phenyl-1-naphthalenyl]oxy}phenyl)-2-propenoic acid]
7 | 110 to 113 | CCCCCc1cc2cc(O)ccc2c(Oc2ccc(/C=C/C(=O)O)cc2)c1-c1ccccc1 [Example 18, (2E)-3-{4-[(6-Hydroxy-3-pentyl-2-phenyl-1-naphthalenyl)oxy]phenyl}-2-propenoic acid]
8 | 169 to 170 | CCCCc1cc2ccccc2c(Oc2ccc(/C=C/C(=O)O)cc2)c1-c1ccc(F)cc1 [Example 24, (2E)-3-(4-{[3-Butyl-2-(4-fluorophenyl)-1-naphthalenyl]oxy}phenyl)-2-propenoic acid]
9 | 160 to 161 | CCCCc1cc2ccccc2c(Oc2ccc(/C=C/C(=O)O)cc2)c1-c1ccccc1 [Example 26, (2E)-3-{4-[(3-Butyl-2-phenyl-1-naphthalenyl)oxy]phenyl}-2-propenoic acid]

The next lines start with the compound.

Row | SMILES | melting point [°C]
10 | CCc1cc2cc(O)ccc2c(Oc2ccc(/C=C/C(=O)O)cc2)c1-c1ccccc1 [Example 11, (2E)-3-{4-[(3-Ethyl-6-hydroxy-2-phenyl-1-naphthalenyl)oxy]phenyl}-2-propenoic acid] | 188 to 190
11 | CC(C)c1cc2cc(O)ccc2c(Oc2ccc(/C=C/C(=O)O)cc2)c1-c1ccccc1 [Example 13, (2E)-3-(4-{[6-Hydroxy-3-(1-methylethyl)-2-phenyl-1-naphthalenyl]oxy}phenyl)-2-propenoic acid] | 198 to 199
12 | CCCCc1cc2cc(O)ccc2c(Oc2ccc(/C=C/C(=O)O)cc2)c1-c1ccccc1 [Example 14, (2E)-3-{4-[(3-Butyl-6-hydroxy-2-phenyl-1-naphthalenyl)oxy]phenyl}-2-propenoic acid] | 128 to 130
13 | CCCc1cc2cc(O)ccc2c(Oc2ccc(/C=C/C(=O)O)cc2)c1-c1ccccc1 [Example 16, (2E)-3-{4-[(6-Hydroxy-2-phenyl-3-propyl-1-naphthalenyl)oxy]phenyl}-2-propenoic acid] | 120 to 122
14 | O=C(O)/C=C/c1ccc(Oc2c(-c3ccccc3)c(CCC(F)(F)F)cc3cc(O)ccc23)cc1 [Example 19, (2E)-3-(4-{[6-Hydroxy-2-phenyl-3-(3,3,3-trifluoropropyl)-1-naphthalenyl]oxy}phenyl)-2-propenoic acid] | 118 to 120
15 | CCCc1cc2cc(O)c(F)cc2c(Oc2ccc(/C=C/C(=O)O)cc2)c1-c1ccccc1 [Example 20, (2E)-3-{4-[(7-Fluoro-6-hydroxy-2-phenyl-3-propyl-1-naphthalenyl)oxy]phenyl}-2-propenoic acid] | 118 to 120
16 | O=C(O)/C=C/c1ccc(Oc2c(-c3ccccc3)c(C3CC3)cc3cc(O)ccc23)cc1 [Example 22, (2E)-3-{4-[(3-Cyclopropyl-6-hydroxy-2-phenyl-1-naphthalenyl)oxy]phenyl}-2-propenoic acid] | 242 to 243
17 | CCCc1cc2cc(O)c(F)cc2c(Oc2ccc(/C=C/C(N)=O)cc2)c1-c1ccccc1 [Example 25, (2E)-3-{4-[(7-Fluoro-6-hydroxy-2-phenyl-3-propyl-1-naphthalenyl)oxy]phenyl}-2-propenamide] | 121 to 124
18 | O=C(O)/C=C/c1ccc(Oc2c(-c3ccccc3)c(C(F)(F)F)cc3ccccc23)cc1 [Example 27, (2E)-3-(4-{[2-Phenyl-3-(trifluoromethyl)-1-naphthalenyl]oxy}phenyl)-2-propenoic acid] | 210 to 211
19 | O=C(O)c1ccc(Oc2c(-c3ccc(O)cc3)c(C(F)(F)F)cc3ccccc23)cc1 [Example 28, 4-{[2-(4-Hydroxyphenyl)-3-(trifluoromethyl)-1-naphthalenyl]oxy}benzoic acid] | 244 to 245
20 | CCCCCCCCc1cc2cc(O)ccc2c(Oc2ccc(/C=C/C(=O)O)cc2)c1-c1ccccc1 [Example 29, (2E)-3-{4-[(6-Hydroxy-3-octyl-2-phenyl-1-naphthalenyl)oxy]phenyl}-2-propenoic acid] | 163 to 164
